Experimental data taken from US20250275538A1, “COMPOSITIONS CONTAINING L-CARNITINE AND SEAWEED EXTRACT FOR MITIGATING ABIOTIC STRESS IN PLANTS” (ACADIAN SEAPLANTS LIMITED, priority 2022, published 2025).

How the values were obtained:
Format in all cases: in vivo
[1] = system: wheat (cultivar Skyfall, ref. SEED-0035); experiment: Wheat subject to cold stress (seed treatment), NPQt and synergy assessment; conditions: 10 days after sowing, ANE alone 0.36 g
Description: Seed Treatment solutions were prepared per Table 20:
0.1 mL of treatment solution was pipetted into a 500-mL glass beaker around the edges and 10 g of wheat seed (cultivar Skyfall, ref. SEED-0035) was added. The beaker was swirled by hand for 1 min to coat the seeds, which were then swirled intermittently until dry, if needed.
The trial was set up according to the following protocol: • 1. 32 8-0-6 cell packs were labelled with coloured stickers to denote five treatments with 4 cell packs for non-stress controls and 7 for the remaining 4 treatments. • 2. In a container 6 L of stored field soil and 600 mL water were mixed thoroughly. • 3. If soil was too dry, an additional 300 mL water, or an amount as appropriate, was added. • 4. […]
An estimate of non-photochemical quenching (NPQt), which is the amount of incoming light that is regulated away from photosynthetic processes in order to reduce damage to the plant was obtained using the MultispeQ (B-4003-AA) from PhotosynQ, according to manufaturer's directions. For the photosynthesis measuments a total of 12-14 plants per treatment were measured. […]
To supplement the observed evidence of efficacy, a synergy assessment was made. Synergy was calculated using two different methodologies, both of which find support in the literature: 1) Equation Ill from Colby, S. R. 1967. […]

[2] = system: winter wheat (cv. Marius); experiment: Wheat salinity stress greenhouse trial (seed treatment); conditions: ANE alone 1 ml/kg, CAR alone 0.3 g/kg
Description: Winter wheat seed (cv. Marius) was treated at a total application volume of 10 ml/kg with water (unstressed control and stressed control treatment groups), or an aqueous solution of Ascophyllum nodosum extract (ANE) at 1 ml/kg, or an aqueous solution of L-carnitine hydrochloride (CAR) at 0.3 g/kg, or combinations of Ascophyllum nodosum extract at 1 ml/kg with either 0.1, 0.2, 0.3, or 0.4 g/kg L-carnitine hydrochloride. Treated wheat seed was sown in pots containing soil with 10 biological replicates per treatment group in a randomized complete block design. Four days after full emergence, salinity stress was imposed on all but the unstressed control treatment group through irrigation with saline water (8 g/l NaCl) for the remainder of the trial. The unstressed control treatment group was irrigated with non-saline water.

soybean (cv. Mungo) = experiment: Soybean drought stress greenhouse trial (seed treatment); conditions: 51 days after sowing, ANE alone 1 ml/kg, CAR alone 0.3 g/kg
Description: Soybean seed (cv. Mungo) was treated at a total application volume of 10 ml/kg with water (unstressed control and stressed control treatment groups), or an aqueous solution of Ascophyllum nodosum extract (ANE) at 1 ml/kg, or an aqueous solution of L-carnitine hydrochloride (CAR) at 0.3 g/kg, or combinations of Ascophyllum nodosum extract at 1 ml/kg with either 0.1, 0.2, 0.3, or 0.4 g/kg L-carnitine hydrochloride. Treated soybean seed was sown in pots containing soil with 10 biological replicates per treatment group in a randomized complete block design. Four days after full emergence, drought stress was imposed on all but the unstressed control treatment group through a 50% reduced irrigation regime relative to the full irrigation received by the unstressed control group.

[3] = system: Marula soybean (reference SEED-003); experiment: Soybean subject to salinity stress (seed treatment), NPQt, shoot weight and synergy assessment; conditions: 17 days after sowing, ANE alone 0.36 g
Description: To supplement the observed evidence of efficacy, a synergy assessment was made. Synergy was calculated using two different methodologies, both of which find support in the literature: 1) Equation Ill from Colby, S. R. 1967. Calculating synergistic and antagonistic responses of herbicide combinations. Weed Science 15:20-22. and 2) Equation 2 from Huang, Z., and K. A. Falco. 2021. Synergy assessment for plant growth by independent joint action theory. HortScience 56(5):623-626. doi: 10.21273/HORTSC115731-21. A one-sample, two-tailed t-test was used to assess the statistical significance of the difference between the observed and predicted means. The same Seed Treatments solutions (Table 20) and trial protocol were used as in Example 6, but seeds were planted at 1.5″. To coat seeds, 0.3 mL of treatment solution was pipetted into a 500-mL glass beaker around the edges and 30 g of soybean seed was added. Marula soybean seed (reference SEED-003) from Prograin was used, without any other treatment. An estimate of NPQt was obtained using the MultispeQ™ (B-4003-AA) from PhotosynQ, according to manufaturer's directions. For the photosynthesis measuments a total of 12-14 plants per treatment were measured. For Example 7, parametric analysis of variance (ANOVA) was done using the aov function in the ggpubr package, and multiple comparison testing was done with the Tukey test (alpha=0.1) using the TukeyHSD function in the stats package in R. Shoot weight was evaluated to assess whether the positive effects observed in NPQt was reflected in more robust plant grown. Seven cell packs per treatment were measured for shoot weight.

[4] = system: winter wheat (cv. Marius); experiment: Wheat drought stress greenhouse trial (seed treatment); conditions: ANE alone 1 ml/kg, CAR alone 0.3 g/kg; for plant vigour, Mean: 0-10 scale
Description: Winter wheat seed (cv. Marius) was treated at a total application volume of 10 ml/kg with water (unstressed control and stressed control treatment groups), or an aqueous solution of Ascophyllum nodosum extract (ANE) at 1 ml/kg, or an aqueous solution of L-carnitine hydrochloride (CAR) at 0.3 g/kg, or combinations of Ascophyllum nodosum extract at 1 ml/kg with either 0.1, 0.2, 0.3, or 0.4 g/kg L-carnitine hydrochloride. Treated wheat seed was sown in soil in pots with 10 biological replicates per treatment group in a randomized complete block design. Four days after full emergence, drought stress was imposed on all but the unstressed control treatment group through a 50% reduced irrigation regime relative to the full irrigation received by the unstressed control group.

corn (cv. H140354) = experiment: Corn drought stress controlled environment room trial (seed treatment); conditions: 10 days after sowing
Description: Corn seed (cv. H140354) was treated at a total application volume of 10 ml/kg with water (unstressed control and stressed control treatment groups), or an aqueous solution of Ascophyllum nodosum extract (ANE) at 2 ml/kg, or an aqueous solution of L-carnitine hydrochloride (CAR) at 0.3 g/kg, or a combinations of Ascophyllum nodosum extract at 2 ml/kg and 0.3 g/kg L-carnitine hydrochloride. Treated corn seed was sown in field soil inside cell packs set in greenhouse trays with 16 biological replicates per treatment group in a randomized complete block design. Three days after seeding, drought stress was imposed on all but the unstressed control treatment group through a 75% reduced irrigation regime relative to the full irrigation received by the unstressed control group, and assessments were made ten days after seeding.

[5] = drought stress (50% reduced irrigation)
[6] = compared to stressed control, drought stress
[7] = compared to stressed control, Carnitine alone 0.30 g
[8] = 50 days after sowing, drought stress (50% reduced irrigation)
[9] = compared to stressed control, 50 days after sowing, drought stress
[10] = drought stress (75% reduced irrigation), ANE alone 2 ml/kg, CAR alone 0.3 g/kg
[11] = compared to stressed control, drought stress, ANE alone 2 ml/kg, CAR alone 0.3 g/kg

## C[N+](C)(C)C[C@H](O)CC(=O)[O-].Cl [CAR, L-carnitine hydrochloride]
[1]; cold stress 13/8° C. day/night for 4 days, Carnitine alone 0.30 g (Table 20 solutions)
  non-photochemical quenching (NPQt), Mean: 0.40
[1]; compared to stressed control, cold stress, Carnitine alone 0.30 g
  non-photochemical quenching (NPQt), Difference (%): −4.8%
[2]; 22 days after sowing, salinity stress (irrigation with 8 g/l NaCl)
  plant height, Mean: 27.55
[2]; 29 days after sowing, salinity stress (8 g/l NaCl)
  relative chlorophyll content (SPAD), Mean: 35.30
[2]; 35 days after sowing, salinity stress (8 g/l NaCl)
  plant height, Mean: 37.39
[2]; 43 days after sowing, salinity stress (8 g/l NaCl)
  plant vigour, Mean: 8.68
[2]; 50 days after sowing, salinity stress (8 g/l NaCl)
  fresh foliar biomass, Mean: 10.6
[2]; compared to stressed control, 22 days after sowing, salinity stress
  plant height, Difference (%): 6.8%
[2]; compared to stressed control, 29 days after sowing, salinity stress
  relative chlorophyll content (SPAD), Difference (%): 17.1%
[2]; compared to stressed control, 35 days after sowing, salinity stress
  plant height, Difference (%): 17.2%
[2]; compared to stressed control, 43 days after sowing, salinity stress
  plant vigour, Difference (%): 9.9%
[2]; compared to stressed control, 50 days after sowing, salinity stress
  fresh foliar biomass, Difference (%): 29.3%
Soybean (cv. Mungo); [5]
  foliar dry weight, Mean: 12.64
  foliar fresh weight, Mean: 49.1
  plant vigour, Mean: 9.4
Soybean (cv. Mungo); [6]
  foliar dry weight, Difference (%): 55.9%
  foliar fresh weight, Difference (%): 24.9%
  plant vigour, Difference (%): 23.7%
[3]; Carnitine alone 0.30 g
  shoot weight (Shoot Fresh Weight), Mean: 1.69
[3]; Carnitine alone 0.30 g (Table 20 solutions)
  non-photochemical quenching (NPQt), Mean: 0.76
[3]; [7]
  non-photochemical quenching (NPQt), Difference (%): −12.4%
  shoot weight, Difference (%): 3.0%
[4]; 21 days after sowing, drought stress (50% reduced irrigation), combinations as labelled
  plant vigour, Mean: 7.60
[4]; 42 days after sowing, drought stress (50% reduced irrigation)
  plant vigour, Mean: 8.35
[4]; [8]
  foliar fresh weight, Mean: 9.94
  root fresh weight, Mean: 3.66
[4]; compared to stressed control, 21 days after sowing, drought stress
  plant vigour, Difference (%): 7.0%
[4]; compared to stressed control, 42 days after sowing, drought stress
  plant vigour, Difference (%): 11.3%
[4]; [9]
  foliar fresh weight, Difference (%): 9.9%
  root fresh weight, Difference (%): 67.5%
Corn (cv. H140354); [10]
  linear electron flow (LEF), Mean: 10.14
  photosynthetic efficiency (photosystem II efficiency, Phi2), Mean: 0.32
  root length, Mean: 263.3
Corn (cv. H140354); [11]
  linear electron flow (LEF), Difference (%): −4.3%
  non-photochemical quenching (NPQt), Difference (%): −10.0%
  photosynthetic efficiency (Phi2), Difference (%): 5.7%
  root length, Difference (%): 16.4%
Corn (cv. H140354); indicator of plant stress level, drought stress (75% reduced irrigation), ANE alone 2 ml/kg, CAR alone 0.3 g/kg
  non-photochemical quenching (NPQt), Mean: 2.32
Corn (cv. H140354); stated as decrease vs stressed control, CAR at 0.3 g/kg, drought stress
  decrease in LEF: 4.3%
